{
  "source": "paper PMC11203957",
  "about": "“Naphthoquinone-Quinolone Hybrids with Antitumor Effects on Breast Cancer Cell Lines—From the Synthesis to 3D-Cell Culture Effects” (International Journal of Molecular Sciences, 2024)",
  "key": {"[1]": {"system": "MDA-MB-231", "assay": "MTT cell viability assay, MDA-MB-231 (2D culture)", "type": "cell-based, human", "description": "(§1) Our first approach to assessing the anticancer activity of the novel 1,4-naphthoquinone/4-quinolone conjugates 11a–f on breast cancer cells involved comparing their effects in the MTT cell viability assay to determine the half-maximal inhibitory concentration (IC50) in the 2D cell culture model. Doxorubicin and 1,4-naphthoquinone were used as controls. Concentration-response curves were obtained with the conjugates at concentrations ranging from 0 to 200 µM. […] This observation aligns with the structural characteristics of this derivative, which features the largest alkyl substituent at position R^1.\n(§2) The IC50 values were calculated using GraphPad Prism v. 8.0.1, and the selectivity index was estimated as the ratio between the IC50 value of MCF10A/IC50 value of MDA-MB-231 or MCF-7 [33], for each compound."}, "[2]": {"system": "MDA-MB-231 cells", "assay": "Clonogenic assay, MDA-MB-231", "type": "cell-based, human", "settings": "25 µM, 24 h treatment, about 14 days growth", "excerpt": "The clonogenic assay is an effective tool for investigating individual cells’ ability to form colonies. Tumor cells with the ability to generate an expanding family of descendants are clonogenic. Therefore, a clonogenic assay is a simple method to verify one of the important characteristics of cancer cells, which is the ability to detach from the site of origin and to form metastases in other locations. […] For instance, 90–99% of the tumor cells in FaDU tumors, a type of human squamous cell carcinoma observed in nude mice, are non-clonogenic. To achieve the main goal of cancer treatment, which is tumor eradication, it is necessary to inactivate all clonogenic cells through either cell killing or the induction of a permanent state of dormancy, thereby eliminating their clonogenic capacity. The assessment of the potential of a drug to achieve a curative outcome, i.e., effectively neutralizing clonogenic tumor cells, requires the utilization of experimental endpoints that accurately reflect the response of clonogenic cells. Clonogenic endpoints hold particular significance when novel anticancer agents are incorporated into curative therapeutic regimens, such as in combination with radiotherapy or chemotherapy. Thus, clonogenic assays were conducted for compounds 11a–f and 1,4-naphthoquinone.\nFigure 6 The inhibition of colony formation by compounds 11a–f using MCF-7 (A,C) and MDA-MB-231 (B,D) cell lines. Cells were treated with derivatives 11a–f at 25 µM for 24 h. Subsequently, 400 cells were plated on 6-well plates for approximately 14 days. Then, cells were stained with crystal violet dye to visualize the colonies formed."}, "[3]": {"system": "MDA-MB-231 spheroids", "assay": "3D-cell culture (spheroids), morphology and acid phosphatase viability, MDA-MB-231", "type": "cell-based, human", "settings": "25 µM, vs control, p < 0.05", "excerpt": "3D-cell cultures display features that resemble in vivo tumors: due to their tridimensional structure, cells are not provided with the same amounts of oxygen and nutrients in the center as on the surface, resulting in a gradient that leads to the formation of a necrotic core, similar to the in vivo tumor environment. In the 3D-cell culture model used here, spheroids are formed due to low interaction with the microplate bottom, promoted by its coating with agarose, and strong cell-to-cell interactions in MCF-7 cells, generating a finely compact and homogeneous spheroid. For MDA-MB-231 cells, the addition of collagen I is an extra stimulus necessary for spheroid stabilization. Spheroids were prepared and grown for 48 h and then treated with the compounds at 25 µM. After 48 h, morphological changes were observed, and their viabilities were measured as described in Section 3. […] These findings are in line with the viability test, which detected a reduction in the viabilities for all of them, which is significant compared to the control (p < 0.05), except for 11a in MDA-MB-231 spheroids (Figure 8C,D). […]\nThe procedure was performed as described by Gong et al., with a few modifications. […] The cell spheroids/aggregates were treated with fresh medium added to the compounds and their viability was evaluated after 48 h. […]"}, "[4]": {"system": "MCF-7 cells", "assay": "Annexin V/PI apoptosis assay, MCF-7", "type": "cell-based, human", "settings": "50 µM", "description": "We investigated apoptosis induction through the annexin V/PI protocol, as described in Section 3. Doxorubicin, 1,4-naphthoquinone, and cisplatin were used as controls. […] For MDA-MB-231 cells (Figure 5B), the effects observed were more prominent at the concentrations tested.\nFor the apoptosis assay, the manufacturer’s instructions were followed (Dead Cell Apoptosis Kit with Annexin V for Flow Cytometry, Thermo Fisher Scientific, MA, USA). The cells were analyzed in a Countess II FL cell counter (Thermo Fisher Scientific, Waltham, MA, USA).\nFigure 5 Naphthoquinone-quinolone hybrids induce apoptosis in MCF-7 (A) and MDA-MB-231 (B) cells at different levels."}, "[5]": {"system": "MCF-7 spheroids", "assay": "3D-cell culture (spheroids), morphology and acid phosphatase viability, MCF-7", "type": "cell-based, human", "settings": "25 µM, 48 h", "excerpt": "3D-cell cultures display features that resemble in vivo tumors: due to their tridimensional structure, cells are not provided with the same amounts of oxygen and nutrients in the center as on the surface, resulting in a gradient that leads to the formation of a necrotic core, similar to the in vivo tumor environment. In the 3D-cell culture model used here, spheroids are formed due to low interaction with the microplate bottom, promoted by its coating with agarose, and strong cell-to-cell interactions in MCF-7 cells, generating a finely compact and homogeneous spheroid. For MDA-MB-231 cells, the addition of collagen I is an extra stimulus necessary for spheroid stabilization. Spheroids were prepared and grown for 48 h and then treated with the compounds at 25 µM. After 48 h, morphological changes were observed, and their viabilities were measured as described in Section 3. The exposure to the compounds for 48 h promoted visible changes in the morphologies of spheroids for both cell lines when compared to the controls (Figure 8). […] While it is more complicated to imply changes in the proliferative (surface) region of the MDA-MB-231 spheroids (Figure 8B), they are observed together with morphological changes after treatment, making them appear more crumbly and lose their round shape. These findings are in line with the viability test, which detected a reduction in the viabilities for all of them, which is significant compared to the control (p < 0.05), except for 11a in MDA-MB-231 spheroids (Figure 8C,D). We should also highlight that the concentrations necessary for an effect on spheroids are expected to be higher when compared to 2D-cell culture models. Here, we observed changes using 25 µM of each compound, as performed in the other experiments.\nThe procedure was performed as described by Gong et al., with a few modifications. A total of 5000 cells per well were plated on 96-well plates with bottoms previously covered with 50 µL of a 1% agarose solution. The plates were then centrifuged at 300× g for 10 min. For MDA-MB-231 cells, collagen I from rat tail (Gibco) was added to a 3 µg/mL final concentration in the cell suspension. […] The cell spheroids/aggregates were treated with fresh medium added to the compounds and their viability was evaluated after 48 h. Spheroids were photographed with an inverted microscope Bel INV-100 (Bel Engineering, Monza, Italy) equipped with a digital camera.\nTo measure spheroids viability, this viability assay was performed following Friedrich et al.. The medium was removed from wells and spheroids were washed with PBS. Then, 100 µL of a solution containing 2 mg/mL p-nitrophenyl phosphate (PNPP), 0.1 M citric acid, and 0.1% (v/v) Triton X, pH 5.0 were added. […]"}, "[6]": {"system": "MCF10A", "assay": "MTT cell viability assay, non-tumor MCF10A"}, "[7]": {"system": "MCF-7", "assay": "MTT cell viability assay, MCF-7 (2D culture)", "type": "cell-based, human", "description": "as §1, §2"}, "[8]": {"system": "4T1", "set-up": "method as in PMID 30129412", "settings": "cited from earlier work"}, "[9]": {"system": "MDA-MB-231", "set-up": "method as in PMID 30129412", "settings": "cited from earlier work"}, "[10]": {"system": "non-cancerous cell line MCF10A", "set-up": "method as in PMID 30129412", "settings": "cited from earlier work"}, "[11]": {"system": "MCF-7", "set-up": "method as in PMID 30129412", "settings": "cited from earlier work"}, "[12]": {"system": "non-tumorigenic prostate epithelial cells (RWPE-1)", "settings": "cited from earlier work"}, "[13]": {"system": "tumor", "set-up": "method as in PMID 18974148", "settings": "2 mg/kg (body weight), three weeks of treatment; cited from earlier work"}, "[14]": {"system": "refractory invasive prostate cancer cells (DU145)", "set-up": "method as in PMID 18974148", "settings": "cited from earlier work"}, "[15]": {"system": "human gastric cancer cells (MKN-74)", "set-up": "method as in PMID 23651559, PMID 25457491", "settings": "cited from earlier work"}, "[16]": {"system": "MKN-74 cocultured with stromal cells Hs738", "set-up": "method as in PMID 23632919", "settings": "coculture with stromal cells; cited from earlier work"}, "[17]": {"system": "colorectal cancer cells (HCT-15)", "set-up": "method as in PMID 23651559, PMID 25457491", "settings": "cited from earlier work"}, "[18]": {"system": "HCT-15 cocultured with stromal cells CCd-18Co", "set-up": "method as in PMID 23632919", "settings": "coculture with stromal cells; cited from earlier work"}, "[19]": {"assay": "Solubility in the culture medium (inferred from MTT curves)", "type": "physicochemical", "settings": "concentrations >25 µM", "description": "as §1"}, "[20]": {"system": "MCF-7 human breast cancer cells", "set-up": "method as in PMID 33039723", "settings": "cited from earlier work"}, "[21]": {"settings": "low concentrations (<25 µM), effect plateaus above 25 µM"}},
  "data": [
    {"smiles": "CCOC(=O)c1cn(CC)c2ccc(C3=CC(=O)c4ccccc4C3=O)cc2c1=O", "note": "[Compound 11a, Ethyl 6-(1,4-dioxo-1,4-dihydronaphthalen-2-yl)-1-ethyl-4-oxo-1,4-dihydroquinoline-3-carboxylate]", "values": [
      {"measurement": "IC50", "setting": "[1]; Homo sapiens, MDA-MB-231, MTT, 24 h treatment, 2D culture, read-out: IC50 ± SEM MDA-MB-231", "result": "9.16 ± 1", "unit": "µM"},
      {"measurement": "SI IC50 MCF10A/ IC50 MDA-MB-231", "setting": "[1]; selectivity index", "result": "1.15 ± 0.15"},
      {"measurement": "colony formation, MDA-MB-231", "setting": "[2]", "result": "most effective"},
      {"measurement": "spheroid viability (acid phosphatase), MDA-MB-231", "setting": "[3]", "result": "significant decrease was observed for all compounds, except for 11a"},
      {"measurement": "early apoptosis induction (annexin V/PI), MCF-7", "setting": "[4]", "result": "comparable"},
      {"measurement": "spheroid morphology, MCF-7", "setting": "[5]", "result": "changes in the morphology"},
      {"measurement": "IC50", "setting": "[6]; Homo sapiens, MCF-10A, 24 h, read-out: IC50 ± SEM MCF10A", "result": "10.6 ± 1.2", "unit": "µM"},
      {"measurement": "cytotoxicity effect in MCF10A compared with doxorubicin", "setting": "[6]; relative to doxorubicin", "result": "seven times lower"},
      {"measurement": "IC50", "setting": "[7]; Homo sapiens, MCF7, MTT, 24 h treatment, 2D culture, read-out: IC50 ± SEM MCF-7", "result": "18.7 ± 1.1", "unit": "µM"},
      {"measurement": "SI IC50 MCF10A/IC50 MCF-7", "setting": "[7]; selectivity index", "result": "0.57 ± 0.12"}
    ]},
    {"smiles": "CCOC(=O)c1cn(CC)c2ccc(-n3cc(COC4=C(CC=C(C)C)C(=O)c5ccccc5C4=O)nn3)cc2c1=O", "note": "[Compound 10]", "values": [
      {"measurement": "activity against 4T1", "setting": "[8]", "result": "demonstrated activity"},
      {"measurement": "activity against MDA-MB-231", "setting": "[9]", "result": "demonstrated activity"},
      {"measurement": "cytotoxicity against MCF10A", "setting": "[10]", "result": "no significant cytotoxicity"},
      {"measurement": "activity against MCF-7", "setting": "[11]", "result": "demonstrated activity"}
    ]},
    {"smiles": "CC1=CC(=O)c2c(O)cccc2C1=O", "note": "[plumbagin]", "values": [
      {"measurement": "effect on RWPE-1", "setting": "[12]", "result": "without affecting"},
      {"measurement": "tumor reduction", "setting": "[13]", "result": 90, "unit": "%"},
      {"measurement": "apoptosis induction in DU145", "setting": "[14]", "result": "selectively induces apoptosis"}
    ]},
    {"smiles": "CSC(=NCn1c(C/C=C(\\C)CCC=C(C)C)cc(=O)c2ccccc21)SC", "note": "[Compound 4, intervenolin]", "values": [
      {"measurement": "IC50", "setting": "[15]", "result": 7, "unit": "µM"},
      {"measurement": "IC50", "setting": "[16]", "result": 0.4, "unit": "µM"},
      {"measurement": "IC50", "setting": "[17]", "result": 3.7, "unit": "µM"},
      {"measurement": "IC50", "setting": "[18]", "result": 0.5, "unit": "µM"}
    ]},
    {"smiles": "O=C1C=C(c2ccc3c(c2)c(=O)c(C(=O)O)cn3Cc2ccccc2)C(=O)c2ccccc21", "note": "[Compound 11e, 1-benzyl-6-(1,4-dioxo-1,4-dihydronaphthalen-2-yl)-4-oxo-1,4-dihydroquinoline-3-carboxylic acid]", "values": [
      {"measurement": "anticancer activity in MTT concentration-response curve, MDA-MB-231", "setting": "[1]; [21]", "result": "comparable to the most active derivatives at low concentrations"},
      {"measurement": "melting point", "result": "> 300", "unit": "°C"},
      {"measurement": "solubility in the medium", "setting": "[19]", "result": "low solubility"},
      {"measurement": "anticancer activity in MTT concentration-response curve, MCF-7", "setting": "[7]; [21]", "result": "comparable to the most active derivatives at low concentrations"}
    ]},
    {"smiles": "Cc1ccc(NC(=O)c2ccc(NC3=C(Cl)C(=O)c4ccccc4C3=O)cc2)nc1", "note": "[Compound 7]", "values": [
      {"measurement": "cytotoxicity against MCF-7", "setting": "[20]", "result": "high cytotoxicity"}
    ]}
  ]
}
